Biological target: T1, Rex (Staphylococcus aureus, UniProt P60386)
T1 sequence (P60386 1-211): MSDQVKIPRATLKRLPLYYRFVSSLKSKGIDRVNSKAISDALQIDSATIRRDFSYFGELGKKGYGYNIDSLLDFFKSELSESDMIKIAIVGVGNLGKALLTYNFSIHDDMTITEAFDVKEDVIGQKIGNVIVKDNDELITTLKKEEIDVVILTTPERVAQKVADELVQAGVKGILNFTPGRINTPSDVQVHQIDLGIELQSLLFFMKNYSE
Assay: isothermal titration calorimetry
Type: binding

SMILES	Kd
NC(=O)C1=CN([C@@H]2O[C@H](COP(=O)(O)OP(=O)(O)OC[C@H]3O[C@@H](n4cnc5c(N)ncnc54)[C@H](O)[C@@H]3O)[C@@H](O)[C@H]2O)C=CC1 [NADH]	0.095 ± 0.005 µM
NC(=O)c1ccc[n+]([C@@H]2O[C@H](COP(=O)(O)OP(=O)(O)OC[C@H]3O[C@@H](n4cnc5c(N)ncnc54)[C@H](O)[C@@H]3O)[C@@H](O)[C@H]2O)c1 [NAD^+]	150 ± 20 µM

From publication PMC2883068 (Molecular Microbiology, 2010)
